In patent US20210255193A1, “LYSINE REACTIVE PROBES AND USES THEREOF” (The Scripps Research Institute, priority 2017, published 2021):

Assays:
Test in all cases: competitive isoTOP-ABPP
Assay type in all cases: binding
Details in all cases: 50 uM_231_sol_in vitro
[1] = target: T1, LDHB L-lactate dehydrogenase B chain (Homo sapiens, UniProt P07195)
T1 construct: isoTOP-ABPP experiments performed in cell lysates (in vitro); endogenous in cells; host or cells: MDA-MB-231 soluble lysate
Summary of the method: (§1)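 Here, isoTOP-ABPP measures loss of STP-alkyne labeling at individual lysines after fragment exposure in lysate. Activated esters are dosed at 50 μM, guanidinylating agents at 100 μM; the probe follows at 0.1 mM for 1 h. R ≥4 marks a liganded lysine.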

RTN4 Reticulon-4 = target: T2, RTN4 Reticulon-4 (Homo sapiens, UniProt Q9NQC3)
T2 construct: endogenous in cells; host or cells: MDA-MB-231 lysate
T2 sequence (Q9NQC3 1-1192): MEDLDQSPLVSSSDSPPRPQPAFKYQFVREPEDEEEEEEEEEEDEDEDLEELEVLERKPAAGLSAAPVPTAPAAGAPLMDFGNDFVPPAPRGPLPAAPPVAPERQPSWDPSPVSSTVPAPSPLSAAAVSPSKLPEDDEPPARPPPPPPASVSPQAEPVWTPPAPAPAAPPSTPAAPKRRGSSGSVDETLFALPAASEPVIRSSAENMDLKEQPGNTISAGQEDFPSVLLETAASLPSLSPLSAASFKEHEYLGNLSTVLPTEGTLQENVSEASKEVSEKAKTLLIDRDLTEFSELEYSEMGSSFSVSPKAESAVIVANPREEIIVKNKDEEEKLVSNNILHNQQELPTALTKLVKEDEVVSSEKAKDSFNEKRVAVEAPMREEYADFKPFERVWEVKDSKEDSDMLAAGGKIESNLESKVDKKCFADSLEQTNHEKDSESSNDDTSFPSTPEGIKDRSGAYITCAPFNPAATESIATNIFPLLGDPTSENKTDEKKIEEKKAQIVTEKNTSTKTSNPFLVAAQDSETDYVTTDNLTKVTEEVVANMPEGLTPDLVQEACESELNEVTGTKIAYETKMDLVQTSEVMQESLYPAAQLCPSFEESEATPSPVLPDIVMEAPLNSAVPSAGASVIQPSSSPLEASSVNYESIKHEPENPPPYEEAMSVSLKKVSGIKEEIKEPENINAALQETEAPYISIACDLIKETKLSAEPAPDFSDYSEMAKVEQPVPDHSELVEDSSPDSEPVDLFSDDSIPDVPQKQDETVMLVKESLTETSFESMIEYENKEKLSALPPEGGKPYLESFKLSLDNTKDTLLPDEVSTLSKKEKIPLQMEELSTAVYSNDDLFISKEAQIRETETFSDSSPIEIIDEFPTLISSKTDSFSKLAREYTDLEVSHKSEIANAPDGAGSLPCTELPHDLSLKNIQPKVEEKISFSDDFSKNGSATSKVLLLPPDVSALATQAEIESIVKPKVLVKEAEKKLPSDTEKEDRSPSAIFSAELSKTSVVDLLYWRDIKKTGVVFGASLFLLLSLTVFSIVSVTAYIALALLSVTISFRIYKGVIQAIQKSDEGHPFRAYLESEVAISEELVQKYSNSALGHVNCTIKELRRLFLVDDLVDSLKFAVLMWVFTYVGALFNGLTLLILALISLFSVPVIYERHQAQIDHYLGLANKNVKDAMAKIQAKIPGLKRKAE
Summary of the method: as §1

TTR Transthyretin = target: T3, TTR Transthyretin (Homo sapiens, UniProt P02766)
T3 construct: isoTOP-ABPP experiments performed in cell lysates (in vitro); endogenous in cells; host or cells: MDA-MB-231 soluble lysate
Summary of the method: as §1

T1 sequence (P07195 whole entry): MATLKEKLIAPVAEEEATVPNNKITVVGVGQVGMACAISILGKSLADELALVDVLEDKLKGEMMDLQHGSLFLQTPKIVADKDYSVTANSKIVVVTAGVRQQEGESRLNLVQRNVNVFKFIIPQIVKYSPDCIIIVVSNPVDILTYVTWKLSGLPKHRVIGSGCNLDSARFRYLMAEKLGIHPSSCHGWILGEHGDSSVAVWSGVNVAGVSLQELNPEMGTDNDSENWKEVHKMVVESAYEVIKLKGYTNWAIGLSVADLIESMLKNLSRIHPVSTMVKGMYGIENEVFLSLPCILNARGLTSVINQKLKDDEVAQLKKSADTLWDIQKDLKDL

Compound	isoTOP-ABPP ratio, lysine P07195_K82 [1]	isoTOP-ABPP ratio, lysine P07195_K244 [1]	isoTOP-ABPP ratio, lysine Q9NQC3_K1104 (RTN4 Reticulon-4)	isoTOP-ABPP ratio, lysine P02766_K35 (TTR Transthyretin)
N#Cc1ccc(C(=O)Oc2ccc([N+](=O)[O-])cc2[N+](=O)[O-])cc1 [fragment 44, 2,4-Dinitrophenyl 4-cyanobenzoate]	1.0	1.1	2.6	20.0
O=C(ON1C(=O)CCC1=O)c1cc(C(F)(F)F)cc(C(F)(F)F)c1 [fragment 46, 3,5-Bis(trifluoromethyl)benzoic acid NHS ester]	0.7	0.8	2.5	2.3
